According to US20230002324A1, “NAPHTHOQUINONE DERIVATIVES FOR TREATMENT OF OXIDATIVE STRESS DISORDERS” (PTC THERAPEUTICS, INC., priority 2019, published 2023):

Test system: Q7 cells (ST HDH Q7/7; immortalized mouse striatal cells)
Assay: Q7 Cystine Deprivation cell survival (rescue) assay
Format: cell-based
Settings: Q7 cells, cystine-free medium, 18 h, Cell Titer Glo, 50% relative viability vs Vitamin K2 (1 micromolar), read-out: Q7 Cystine Deprivation Survival EC50
From the text: (§1) In neuronal cells excess extracellular glutamate inhibits the cystine/glutamate antiporter leading to intracellular cysteine depletion, GSH depletion, reactive oxygen species (ROS) production and cell death, a phenomenon termed oxidative glutamate toxicity, oxytosis, or ferroptosis. […] Q7 cells (ST HDH Q7/7; immortalized mouse striatal cells) challenged with cystine-free media or the selective, irreversible GPX4 inhibitor, methyl (1S,3R)-2-(2-chloroacetyl)-1-(4-(methoxycarbonyl)phenyl)-2,3,4,9-tetrahydro-1H-pyrido[3,4-b]indole-3-carboxylate (hereafter referred to as RSL3), recapitulate this phenotype, as do normal human fibroblasts (NHF) challenged with RSL3. An initial screen was performed to identify compounds effective in rescuing Q7 and/or NHF cells from death resulting from cystine deprivation or RSL3 challenge. This method is further described in Yonezawa et al., J. Neurochem 67, 566-573 (1996), Li et al., J Neurosci., 23, 5816-5826 (2003), Yang and Stockwell, Chem Biol., 15: 234-45 (2008), and Yang et al., Cell 156, 317-331 (2014). See also Hinman A, Holst C R, Latham J C, et al. Vitamin E hydroquinone is an endogenous regulator of ferroptosis via redox control of 15-lipoxygenase. PLoS One. 2018; 13(8):e0201369. Published 2018 Aug. 15. doi:10.1371/journal.pone.0201369; and Kahn-Kirby A H, Amagata A, Maeder C I, et al. Targeting ferroptosis: A novel therapeutic strategy for the treatment of mitochondrial disease-related epilepsy. PLoS One. 2019; 14(3):e0214250. Published 2019 Mar. 28. doi:10.1371/journal.pone.0214250.
(§2) DMEM (Catalog no. 11995-040), DMEM without Cystine (Catalog no. 21013-024), DMEM without Glucose (Catalog A1443001), PBS (Phosphate buffered saline), Penicillin-streptomycin mix, L-Glutamine, Glucose, Phenol Red, and Pyruvate were purchased from ThermoFisher Scientific (Gibco). Fetal Bovine Serum was obtained from Mediatech, Inc., or Sigma Aldrich. Mouse striatum derived ST HDH Q7/7 (Q7) and normal human skin fibroblast (NHF, product number GM21811) cells were obtained from the Coriell Institute. Methionine and Vitamin K2 were purchased from Sigma Aldrich. RSL3 was synthesized as previously described (see e.g. US Patent Publication US2010/0081654). Cell Titer Glo 2.0 was purchased from Promega. Q7 cell culture medium (Q7 growth medium) was made by combining 50 mL Fetal Bovine Serum, 100 U/mL penicillin, and 100 microgram/mL streptomycin; DMEM was added to make the volume up to 500 mL. Assay medium for the Cystine Deprivation assay was prepared by combining 50 mL Fetal Bovine Serum, 100 U/mL penicillin, 100 microgram/mL streptomycin, 4 mM L-Glutamine, 1 mM Pyruvate and 30 mg/L Methionine; DMEM without Cystine was added to make the volume up to 500 mL. NHF cell culture medium (NHF growth medium) was made by combining 50 mL Fetal Bovine Serum, 100 U/mL penicillin, 100 microgram/mL streptomycin, 2.8 mL 20% Glucose solution (final concentration 6 mM), L-glutamine (final concentration 2 mM), phenol red (final concentration 15 mg/L); DMEM without Glucose was added to make the volume up to 500 mL. Assay medium for the RSL3 challenge assay was identical to Growth medium. While not in use during the course of the experiments, these solutions were stored at 4° C. The cells were grown in 150-cm^2 tissue culture-treated flasks. Every third or fourth day, the cells were sub-cultured by trypsinization and re-seeded at a cell density of 600,000 (Q7) or 300,000 (NHF) cells per flask.
(§3) Q7 or NHF cells were cultured routinely as described herein. For 384-well cell survival assays, cells were seeded in clear bottom, black wall 384-well tissue culture-treated polystyrene plates by re-suspending a cell suspension at a density of 50,000 cells/mL in growth medium, then dispensing 60 microliters of cell suspension per well using either an electronic multichannel pipette or a Multidrop™ Combi Reagent Dispenser (ThermoFisher Scientific), corresponding to 3,000 cells/well. […]

SMILES	EC50 [nM]
CCCC1=C(Cc2cc(C(F)(F)F)c(F)cn2)C(=O)c2ccccc2C1=O [Example 119, 2-((5-fluoro-4-(trifluoromethyl)pyridin-2-yl)methyl)-3-propylnaphthalene-1,4-dione]	< 50
O=C1C(CCC2COC2)=C(Cc2ccc(F)cn2)C(=O)c2ccccc21 [Example 121, 2-((5-fluoropyridin-2-yl)methyl)-3-(2-(oxetan-3-yl)ethyl)naphthalene-1,4-dione]	< 50
COC(C1=C(C)C(=O)c2ccccc2C1=O)c1ccc(C(F)(F)F)cn1 (stereo not drawn) [Example 124, 2-(methoxy(5-(trifluoromethyl)pyridin-2-yl)methyl)-3-methylnaphthalene-1,4-dione]	< 50
O=C1C(O)=C(Cc2ccc(C(F)(F)F)cn2)C(=O)c2ccccc21 [Example 125, 2-hydroxy-3-((5-(trifluoromethyl)pyridin-2-yl)methyl)naphthalene-1,4-dione]	> 1000

Test system: normal human fibroblasts (NHF, GM21811)
Assay: NHF GM21811 RSL3 challenge cell survival (rescue) assay
Format: cell-based
Settings: Fibroblast, NHF cells, RSL3 2 micromolar, 48 h, Cell Titer Glo, read-out: NHF GM21811 RSL3 Survival EC50
From the text: as §1, §2, §3

SMILES	EC50 [nM]
CCC1=C(Cc2ccc(C(F)(F)F)cn2)C(=O)c2cccc(F)c2C1=O [Example 61, 3-ethyl-5-fluoro-2-((5-(trifluoromethyl)pyridin-2-yl)methyl)naphthalene-1,4-dione]	< 50
CCC1=C(Cc2ccc(C(C)(F)F)cn2)C(=O)c2c(F)ccc(F)c2C1=O [Example 62, 2-((5-(1,1-difluoroethyl)pyridin-2-yl)methyl)-3-ethyl-5,8-difluoronaphthalene-1,4-dione]	< 50
CCC1=C(Cc2ccc(C(F)(F)F)cn2)C(=O)c2c(ccc(F)c2F)C1=O [Example 63, 2-ethyl-5,6-difluoro-3-((5-(trifluoromethyl)pyridin-2-yl)methyl)naphthalene-1,4-dione]	< 50
CCC1=C(Cc2ncc(C(F)(F)F)cc2F)C(=O)c2c(F)cc(F)cc2C1=O [Example 64, 2-ethyl-5,7-difluoro-3-((3-fluoro-5-(trifluoromethyl)pyridin-2-yl)methyl)naphthalene-1,4-dione]	< 50
O=C1C(C2CC2)=C(Cc2ccc(C(F)(F)F)cn2)C(=O)c2c(F)cc(F)cc21 [Example 65, 2-cyclopropyl-5,7-difluoro-3-((5-(trifluoromethyl)pyridin-2-yl)methyl)naphthalene-1,4-dione]	< 50
CCC1=C(Cc2cc(C(F)(F)F)c(C)cn2)C(=O)c2c(F)ccc(F)c2C1=O [Example 66, 2-ethyl-5,8-difluoro-3-((5-methyl-4-(trifluoromethyl)pyridin-2-yl)methyl)naphthalene-1,4-dione]	< 50
CCC1=C(Cc2ccc(C(F)F)cn2)C(=O)c2c(F)cc(F)cc2C1=O [Example 67, 3-((5-(difluoromethyl)pyridin-2-yl)methyl)-2-ethyl-5,7-difluoronaphthalene-1,4-dione]	< 50
CCC1=C(Cc2cccc(OC)n2)C(=O)c2c(F)ccc(F)c2C1=O [Example 89, 2-ethyl-5,8-difluoro-3-((6-methoxypyridin-2-yl)methyl)naphthalene-1,4-dione]	< 50
O=C1C(Cc2ccc(C(F)(F)F)cn2)=C(CC2COC2)C(=O)c2c(F)ccc(F)c21 [Example 90, 5,8-difluoro-2-(oxetan-3-ylmethyl)-3-((5-(trifluoromethyl)pyridin-2-yl)methyl)naphthalene-1,4-dione]	< 50
O=C1C(Cc2ccc(C(F)(F)F)cn2)=C(C2CC2)C(=O)c2c(F)ccc(F)c21 [Example 91, 2-cyclopropyl-5,8-difluoro-3-((5-(trifluoromethyl)pyridin-2-yl)methyl)naphthalene-1,4-dione]	< 50
CCC1=C(Cc2ccc(F)cn2)C(=O)c2c(F)cc(F)cc2C1=O [Example 92, 2-ethyl-5,7-difluoro-3-((5-fluoropyridin-2-yl)methyl)naphthalene-1,4-dione]	< 50
CCC1=C(Cc2ccc(C(F)(F)F)c(C#N)n2)C(=O)c2c(F)cc(F)cc2C1=O [Example 93, 6-((3-ethyl-6,8-difluoro-1,4-dioxo-1,4-dihydronaphthalen-2-yl)methyl)-3-(trifluoromethyl)picolinonitrile]	< 50
CCC1=C(Cc2ncc(C(F)(F)F)cc2Cl)C(=O)c2c(F)cc(F)cc2C1=O [Example 94, 3-((3-chloro-5-(trifluoromethyl)pyridin-2-yl)methyl)-2-ethyl-5,7-difluoronaphthalene-1,4-dione]	< 50
N#Cc1nc(CC2=C(C3CC3)C(=O)c3cc(F)cc(F)c3C2=O)ccc1C(F)(F)F [Example 95, 6-((3-cyclopropyl-6,8-difluoro-1,4-dioxo-1,4-dihydronaphthalen-2-yl)methyl)-3-(trifluoromethyl)picolinonitrile]	< 50
N#Cc1nc(CC2=C(C3CC3)C(=O)c3cc(F)ccc3C2=O)ccc1C(F)(F)F [Example 96, 6-((3-cyclopropyl-6-fluoro-1,4-dioxo-1,4-dihydronaphthalen-2-yl)methyl)-3-(trifluoromethyl)picolinonitrile]	< 50
CCC1=C(Cc2ccc(C)c(OC)n2)C(=O)c2c(F)ccc(F)c2C1=O [Example 97, 2-ethyl-5,8-difluoro-3-((6-methoxy-5-methylpyridin-2-yl)methyl)naphthalene-1,4-dione]	< 50
[2H]C([2H])([2H])C1=C(Cc2ccc(C(F)(F)F)c(C(N)=O)n2)C(=O)c2c(F)ccc(F)c2C1=O [Example 126, 6-((5,8-difluoro-3-(methyl-d3)-1,4-dioxo-1,4-dihydronaphthalen-2-yl)methyl)-3-(trifluoromethyl)picolinamide]	< 50
[2H]C([2H])([2H])C1=C(Cc2ccc(C(F)(F)F)c(C(=O)O)n2)C(=O)c2c(F)ccc(F)c2C1=O [Example 127, 6-((5,8-difluoro-3-(methyl-d3)-1,4-dioxo-1,4-dihydronaphthalen-2-yl)methyl)-3-(trifluoromethyl)picolinic acid]	50 to 250
CCC1=C(Cc2ccc(F)c(C#N)n2)C(=O)c2c(F)ccc(F)c2C1=O [Example 132, 6-((3-ethyl-5,8-difluoro-1,4-dioxo-1,4-dihydronaphthalen-2-yl)methyl)-3-fluoropicolinonitrile]	< 50
CCC1=C(Cc2ccc(CC(F)(F)F)cn2)C(=O)c2c(F)ccc(F)c2C1=O [Example 133, 2-ethyl-5,8-difluoro-3-((5-(2,2,2-trifluoroethyl)pyridin-2-yl)methyl)naphthalene-1,4-dione]	< 50
CCC1=C(Cc2cc(C(F)(F)F)c(OC)cn2)C(=O)c2c(F)ccc(F)c2C1=O [Example 134, 2-ethyl-5,8-difluoro-3-((5-methoxy-4-(trifluoromethyl)pyridin-2-yl)methyl)naphthalene-1,4-dione]	< 50
CCC1=C(Cc2cc(C)c(F)cn2)C(=O)c2c(F)ccc(F)c2C1=O [Example 135, 2-ethyl-5,8-difluoro-3-((5-fluoro-4-methylpyridin-2-yl)methyl)naphthalene-1,4-dione]	< 50
CCC1=C(Cc2ccc(C(F)F)cn2)C(=O)c2c(F)ccc(F)c2C1=O [Example 136, 2-((5-(difluoromethyl)pyridin-2-yl)methyl)-3-ethyl-5,8-difluoronaphthalene-1,4-dione]	< 50
